Laboratory results as given in patent publication US6458781B1, “Substituted diarylalkyl amides as calcium channel antagonists” (priority 1998, dated 2002).
Structures can show the parent of a compound that is named as a salt.

Legend:
[1] = molecular target: T1, L-type calcium channels in A10 cells (Rattus norvegicus, UniProt P22002); assay: L-type Ca2+ channel blocking potency in A10 cells (FLIPR); type: cell-based; details: read-out: FLPA10 IC50
T1 construct: which endogenously expresses L-type calcium channels; host or cells: A10 rat embryonic thoracic aorta smooth muscle cells
Summary of the method: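 Rat A10 aortic smooth-muscle cells endogenously expressing L-type channels were loaded with Oregon Green BAPTA-1 and preincubated with compound for 5 min at 35 °C. Cells were then depolarized with 140 mM KCl buffer. Summed fluorescence above basal over 120 s gave % inhibition versus buffer-treated stimulated wells, with zero influx defined by 1.0×10^−6 M nitrendipine.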

[2] = system: Na+ channels in SCG neurons; assay: Sodium current in superior cervical ganglion neurons (whole-cell voltage clamp); type: cell-based, rat
Procedure: Electrophysiological techniques were used to measure the effects of experimental compounds on voltage-gated Ca^2+, […] , and K^+ channels. […] Sodium and potassium channel currents were measured from acutely dissociated SCG neurons.
Dissociation of the neurons from the ganglia was accomplished using a 30 to 45 minute treatment in 0.25% trypsin, similar to methods outlined in Higgins, et al. (see Higgins D. et al. “Tissue culture of mammalian autonomic neurons.” In Banker G. and Goslin K. (Eds), Culturing Nerve Cells, Cambridge, Mass., MIT Press [1991]).
Ca^2+, Na^+, and K^+ channel currents in SCG neurons were measured using conventional single electrode whole-cell voltage-clamp techniques, outlined in Hamill et al., (see Hamill O. P. et al. “Improved patch-clamp techniques for high resolution current recordings from cells and cell-free membrane patches.”Pflugers Arch., 1981;391:85-100). For Ca^2+ channel experiments, the external bathing solution contained tetraethylammonium chloride (100 mM), choline chloride (52 mM), NaCl (15 mM), HEPES (10 mM), glucose (5.6 mM), CaCl2 (2 mM), and MgCl2 (0.8 mM), pH 7.35 with KOH; with the internal pipette solution containing cesium methane sulfonate (140 mM), EGTA (10 mM), and HEPES (10 mM), supplemented with 5 mM Mg^2+-ATP on the day of the experiment, pH 7.4 with CsOH. For Na^+ and K^+ channel experiments, the external bathing solution contained NaCl (150 mM), KCl (5 mM), MgCl2 (1.1 mM), CaCl2 (2.6 mM), Na-HEPES (10 mM), and glucose (10 mM), pH 7.4; with the internal pipette solution containing KCl (80 mM), K-gluconate (50 mM), HEPES (10 mM), and EGTA (10 mM), pH 7.4 with KOH. Experimental compounds were diluted into the external solution and applied to the soma of cells by local perfusion from large diameter (20-50 μm) glass micropipettes or from a U-tube applicator.
For Na^+ and K^+ channel currents, following the determination of the I/V relationship for each cell in control solution, currents were evoked from a holding potential between −65 and −55 mV by stepping every 10 sec to a test potential of either 0 mV for Na^+ or +50 mV for K^+ current for a duration of 35 msec. Peak inward current was measured for Na^+ and sustained current for K^+ channel currents. […] Test compounds were applied until steady-state block was achieved. Data were expressed as percent inhibition of control amplitudes for Na^+ and K^+ channel currents.

T1 sequence (P22002 whole entry): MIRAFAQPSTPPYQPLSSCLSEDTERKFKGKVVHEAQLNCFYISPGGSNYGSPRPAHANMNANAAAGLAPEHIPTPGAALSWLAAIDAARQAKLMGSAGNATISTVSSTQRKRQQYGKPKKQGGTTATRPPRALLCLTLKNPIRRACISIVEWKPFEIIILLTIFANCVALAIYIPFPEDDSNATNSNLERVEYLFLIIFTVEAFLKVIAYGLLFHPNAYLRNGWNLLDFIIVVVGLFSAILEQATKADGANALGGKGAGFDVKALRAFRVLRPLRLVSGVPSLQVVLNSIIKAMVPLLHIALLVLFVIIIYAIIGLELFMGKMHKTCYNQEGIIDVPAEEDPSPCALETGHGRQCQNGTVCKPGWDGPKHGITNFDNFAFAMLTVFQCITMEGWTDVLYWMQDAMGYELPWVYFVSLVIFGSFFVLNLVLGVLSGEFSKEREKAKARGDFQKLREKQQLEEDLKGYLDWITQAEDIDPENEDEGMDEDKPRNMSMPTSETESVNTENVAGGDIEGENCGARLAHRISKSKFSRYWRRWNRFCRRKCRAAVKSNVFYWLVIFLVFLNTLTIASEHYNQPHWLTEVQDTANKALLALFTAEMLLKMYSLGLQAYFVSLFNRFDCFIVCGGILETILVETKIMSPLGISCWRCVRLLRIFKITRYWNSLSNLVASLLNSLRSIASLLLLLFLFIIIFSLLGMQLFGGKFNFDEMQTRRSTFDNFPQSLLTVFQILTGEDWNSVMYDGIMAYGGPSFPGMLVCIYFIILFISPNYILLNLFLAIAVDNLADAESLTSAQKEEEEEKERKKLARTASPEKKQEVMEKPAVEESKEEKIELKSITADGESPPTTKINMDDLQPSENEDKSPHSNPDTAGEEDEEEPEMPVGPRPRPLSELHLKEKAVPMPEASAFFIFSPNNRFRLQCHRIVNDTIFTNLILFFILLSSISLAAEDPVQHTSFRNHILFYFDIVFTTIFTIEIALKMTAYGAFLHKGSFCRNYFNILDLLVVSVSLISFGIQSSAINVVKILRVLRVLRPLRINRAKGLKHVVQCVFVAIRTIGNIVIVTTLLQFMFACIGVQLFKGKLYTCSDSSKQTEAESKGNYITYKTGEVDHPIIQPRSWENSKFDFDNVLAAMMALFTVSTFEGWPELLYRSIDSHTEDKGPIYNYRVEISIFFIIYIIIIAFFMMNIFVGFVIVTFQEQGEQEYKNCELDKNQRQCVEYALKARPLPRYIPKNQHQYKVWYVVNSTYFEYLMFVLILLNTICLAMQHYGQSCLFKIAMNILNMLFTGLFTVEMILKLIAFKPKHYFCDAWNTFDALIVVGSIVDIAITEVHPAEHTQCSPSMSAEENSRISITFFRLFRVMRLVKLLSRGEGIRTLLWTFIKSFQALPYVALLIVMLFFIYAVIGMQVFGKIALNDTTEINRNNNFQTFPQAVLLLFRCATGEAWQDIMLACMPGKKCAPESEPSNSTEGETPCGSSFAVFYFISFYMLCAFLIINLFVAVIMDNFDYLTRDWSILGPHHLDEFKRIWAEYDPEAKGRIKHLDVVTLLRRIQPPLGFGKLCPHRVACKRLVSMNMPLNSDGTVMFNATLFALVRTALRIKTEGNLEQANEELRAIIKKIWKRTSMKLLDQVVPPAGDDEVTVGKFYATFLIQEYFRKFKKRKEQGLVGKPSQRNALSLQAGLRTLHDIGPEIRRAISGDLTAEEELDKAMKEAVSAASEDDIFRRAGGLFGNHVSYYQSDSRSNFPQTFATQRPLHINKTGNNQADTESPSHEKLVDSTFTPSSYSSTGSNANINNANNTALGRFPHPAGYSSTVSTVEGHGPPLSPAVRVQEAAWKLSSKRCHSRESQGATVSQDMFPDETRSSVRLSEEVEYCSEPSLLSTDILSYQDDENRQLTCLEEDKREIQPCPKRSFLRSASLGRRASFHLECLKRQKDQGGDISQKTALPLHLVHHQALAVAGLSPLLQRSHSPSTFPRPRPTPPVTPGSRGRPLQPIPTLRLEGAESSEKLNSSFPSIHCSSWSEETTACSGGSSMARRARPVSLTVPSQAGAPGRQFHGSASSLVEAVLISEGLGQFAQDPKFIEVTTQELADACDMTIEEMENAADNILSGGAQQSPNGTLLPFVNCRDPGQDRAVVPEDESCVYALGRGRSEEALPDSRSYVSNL
T1 sequence (P54290 25-944 partner limits assumed): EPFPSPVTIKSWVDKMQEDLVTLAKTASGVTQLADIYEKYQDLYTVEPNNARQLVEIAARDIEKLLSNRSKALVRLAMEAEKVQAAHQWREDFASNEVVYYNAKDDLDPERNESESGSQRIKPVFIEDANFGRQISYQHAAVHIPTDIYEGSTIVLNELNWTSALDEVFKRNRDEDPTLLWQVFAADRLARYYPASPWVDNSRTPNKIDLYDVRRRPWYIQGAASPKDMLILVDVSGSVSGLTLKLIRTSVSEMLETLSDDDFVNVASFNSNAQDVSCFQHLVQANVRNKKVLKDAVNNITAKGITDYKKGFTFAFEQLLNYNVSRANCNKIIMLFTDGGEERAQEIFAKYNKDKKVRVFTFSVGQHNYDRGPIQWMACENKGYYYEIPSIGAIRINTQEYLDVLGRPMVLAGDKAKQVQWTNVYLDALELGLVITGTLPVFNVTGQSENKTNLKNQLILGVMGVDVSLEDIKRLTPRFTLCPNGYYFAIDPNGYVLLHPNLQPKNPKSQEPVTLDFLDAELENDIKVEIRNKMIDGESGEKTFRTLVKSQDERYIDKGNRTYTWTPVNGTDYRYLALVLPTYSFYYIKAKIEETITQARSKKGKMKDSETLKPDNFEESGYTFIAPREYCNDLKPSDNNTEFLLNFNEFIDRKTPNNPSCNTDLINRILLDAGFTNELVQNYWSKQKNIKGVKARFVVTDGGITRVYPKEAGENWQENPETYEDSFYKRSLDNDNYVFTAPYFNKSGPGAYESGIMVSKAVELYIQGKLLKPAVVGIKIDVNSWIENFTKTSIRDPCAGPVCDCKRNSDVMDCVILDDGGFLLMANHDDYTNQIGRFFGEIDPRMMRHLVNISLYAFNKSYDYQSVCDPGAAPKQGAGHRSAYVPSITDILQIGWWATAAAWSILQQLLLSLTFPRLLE
T1 sequence (P54290 945-1091 partner limits assumed): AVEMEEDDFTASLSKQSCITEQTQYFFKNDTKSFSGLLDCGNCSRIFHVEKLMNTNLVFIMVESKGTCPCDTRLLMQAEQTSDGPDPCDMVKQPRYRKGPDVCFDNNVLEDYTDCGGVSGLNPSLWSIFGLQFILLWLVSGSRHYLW
T1 sequence (P54287 whole entry partner): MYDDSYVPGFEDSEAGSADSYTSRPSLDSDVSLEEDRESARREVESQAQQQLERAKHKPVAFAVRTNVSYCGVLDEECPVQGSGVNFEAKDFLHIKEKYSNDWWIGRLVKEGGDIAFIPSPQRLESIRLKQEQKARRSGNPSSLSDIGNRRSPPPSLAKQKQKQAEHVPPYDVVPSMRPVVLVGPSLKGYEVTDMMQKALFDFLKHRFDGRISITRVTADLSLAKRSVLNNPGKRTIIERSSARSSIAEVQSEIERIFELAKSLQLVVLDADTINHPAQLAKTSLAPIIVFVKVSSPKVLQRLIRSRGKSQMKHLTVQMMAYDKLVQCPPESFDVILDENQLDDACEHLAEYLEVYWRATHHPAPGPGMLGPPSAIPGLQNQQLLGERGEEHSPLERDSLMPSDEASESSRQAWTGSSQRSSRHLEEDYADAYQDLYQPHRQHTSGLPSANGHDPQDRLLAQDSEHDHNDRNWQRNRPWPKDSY

IC50 [1] [nM]	IC50 [2] [nM]	Structure (SMILES)	SCG Na, % blockage at 10 μM [2] [% @ 10]	SCG Na, % blockage at 1 μM ([2]; at 1 μM) [% @ 1]
1200		CC(C)C[C@H](NC(=O)N1CCCCCC1)C(=O)N1CCN(C(c2ccc(F)cc2)c2ccc(F)cc2)CC1 [Example 31, (S)-Azepane-1-carboxylic acid (1-{4-[bis-(4-fluoro-phenyl)-methyl]-piperazine-1-carbonyl}-3-methyl-butyl)-amide]		
360		CC(C)[C@H](NC(=O)N1CCCCCC1)C(=O)N1CCN(C(c2ccc(F)cc2)c2ccc(F)cc2)CC1 [Example 33, (S)-Azepane-1-carboxylic acid (1-{4-[bis-(4-fluoro-phenyl)-methyl]-piperazine-1-carbonyl}-2-methyl-propyl)-amide]	22	
270		CC(C)C[C@@H](CN1CCN(C(c2ccc(F)cc2)c2ccc(F)cc2)CC1)NC(=O)N1CCCCCC1 [Example 36, (S)-Azepane-1-carboxylic acid (1-{4-[bis-(4-fluoro-phenyl)-methyl]-piperazin-1-ylmethyl}-3-methyl-butyl)-amide]	81	

The next lines start with the molecule.

Structure (SMILES)	IC50 [1] [nM]	IC50 [2] [nM]	SCG Na, % blockage at 10 μM [2] [% @ 10]	SCG Na, % blockage at 1 μM ([2]; at 1 μM) [% @ 1]
CC(C)C[C@H](N)C(=O)NCCCC(c1ccc(F)cc1)c1ccc(F)cc1 [Example 7, (S)-2-Amino-4-methyl-pentanoic acid [4,4-bis-(4-fluoro-phenyl)-butyl]-amide monohydrochloride]	280			
CC(C)C[C@H](NCC1CCCCC1)C(=O)NCCCC(c1ccc(F)cc1)c1ccc(F)cc1 [Example 8, (S)-2-(Cyclohexylmethyl-amino)-4-methyl-pentanoic acid [4,4-bis-(4-fluoro-phenyl)-butyl]-amide monohydrochloride]	450		94	
CC(C)=CCN[C@@H](CC(C)C)C(=O)NCCCC(c1ccc(F)cc1)c1ccc(F)cc1 [Example 9, (S)-4-Methyl-2-(3-methyl-but-2-enylamino)-pentanoic acid [4,4-bis-(4-fluoro-phenyl)-butyl]-amide monohydrochloride]	390	8500		
CN[C@@H](CC(C)C)C(=O)NCCCC(c1ccc(F)cc1)c1ccc(F)cc1 [Example 12, (S)-4-Methyl-2-methylamino-pentanoic acid [4,4-bis-(4-fluoro-phenyl)-butyl]-amide monohydrochloride]	600		87	
CC(C)C[C@@H](C(=O)NCCCC(c1ccc(F)cc1)c1ccc(F)cc1)N(C)Cc1ccc(C(C)(C)C)cc1.Cl [Example 14, (S)-2-[(4-tert-Butyl-benzyl)-methyl-amino]-4-methyl-pentanoic acid [4,4-bis-(4-fluoro-phenyl)-butyl]-amide monohydrochloride]	> 3000			
CC(C)CCN(C)[C@@H](CC(C)C)C(=O)NCCCC(c1ccc(F)cc1)c1ccc(F)cc1 [Example 28, (S)-4-Methyl-2-[methyl-(3-methyl-butyl)-amino]-pentanoic acid [4,4-bis-(4-fluoro-phenyl)-butyl]-amide monohydrochloride]	290		90	5
CC(C)C[C@@H](C(=O)N1CCN(C(c2ccc(F)cc2)c2ccc(F)cc2)CC1)N(C)C [Example 39, (S)-1-{4-[Bis-(4-fluoro-phenyl)-methyl]-piperazin-1-yl}-2-dimethylamino-4-methyl-pentan-1-one dihydrochloride]	890			
